Measured values taken from paper PMC7504435, “Combined Protein- and Ligand-Observed NMR Workflow to Screen Fragment Cocktails against Multiple Proteins: A Case Study Using Bromodomains” (Molecules, 2020).
Several values for one entry are separate records, joined by “and”; a condition that tells them apart may be missing. Identical values can stand only once.

Tests used:
Assay type in all cases: binding
PfGCN5 bromodomain [1] = target: T1, PfGCN5 bromodomain (Plasmodium falciparum, UniProt Q8IB67); test: biochemical
Protocol: (§1) The screening workflow consists of two dependent steps: 1) a PrOF NMR screen of the 5FW-labeled proteins and a cocktail of 4–5 fragments in a single NMR tube; 2) a ^1H CPMG NMR binding assay to deconvolute the hit mixtures for each protein (Figure 1). In the first step, a dual-protein PrOF NMR spectrum was obtained in which 5FW-PfGCN5, 5FW-BPTF (~ 50 µM each) and mixtures of fragments (400 µM individual fragment) were present in the same NMR tube. […] Chemical shift perturbations indicating a ligand binding event were based on a prior cutoff of Δδ ≥ 0.030 ppm as the definition for a hit mixture. This cutoff was based on a statistical analysis of chemical shift perturbations from a prior BRD4 D1 fragment screen and are described further in the experimental section and in Table S2.
(§2) PrOF NMR. PrOF NMR spectra were obtained on a Bruker Avance III HD 500 with the 5 mm Prodigy TCI inverse cryoprobe (^19F S:N 2000:1). […] The DMSO concentration for all experiments was kept constant at 1%. […] For the PrOF NMR screen, 5FW-BPTF and 5FW-PfGCN5 (35–40 µM in 50 mM phosphate, 100 mM NaCl, pH 7.4) were tested with mixtures of 4–5 fragments, where each individual fragment was 400 µM. […] A 10 Hz line broadening was applied. Titrations were fit to Equation (2), where p is the protein concentration and L is the ligand concentration. (2) Δδ=Δδmax × (Kd+P+L ) − (((Kd + P + L )^2) − 4PL)/2P
(§3) A PrOF NMR binding event is characterized as a change in chemical shift (Δδ) from the protein-only spectrum to the protein + fragment mixture spectrum. We used a prior cutoff of Δδ ≥ 0.030 ppm as the definition of a hit mixture, based on a statistical analysis of chemical shift perturbations from a prior BRD4 D1 fragment screen.

PfGCN5 bromodomain [2] = target: T1, PfGCN5 bromodomain; test: 1H CPMG NMR deconvolution of hit mixtures, PfGCN5; conditions: 10 µM protein, 100 µM ligand
Protocol: The second step is a ^1H CPMG NMR deconvolution of the hit mixtures using the non-fluorine-labeled bromodomains. ^1H CPMG NMR employs a T2 filter to take advantage of the difference in transverse relaxation time between protein and small molecules to filter out the bound-state ligand(s). Unlike the PrOF NMR assay, a single protein is assayed in each experiment. A binding event is characterized by a decrease in ligand resonance intensity from the ligand alone spectrum to the ligand + protein spectrum. A hit is defined as a decrease in resonance intensity ≥ 20%. The ^1H CPMG NMR assay can be tuned by changing the protein or ligand concentration, filter length (Figure 1), or hit criteria depending on how stringent the desired hit rate is. The number of ^1H CPMG NMR deconvolution experiments is directly informed from the first step. If a mixture from the first step was only a hit for one protein, a single ^1H CPMG NMR deconvolution experiment is needed. If a mixture from the first step was a hit for both proteins, two separate ^1H CPMG NMR deconvolutions experiments are needed to determine the fragments that bind to each protein.
^1H CPMG NMR. ^1H CPMG NMR screen data were acquired on Bruker Avance III HD 500 with the 5 mm Prodigy TCI cryoprobe inverse cryoprobe (^1H 2500:1 S/N). Competition ^1H CPMG NMR data were acquired on Bruker 700 MHz Avance with a CryoProbe 5 mm TXI (^1H S:N with H2O suppression (2mM sucrose) - 900:1) and excitation sculpting water suppression. Proteins were present at 10 µM in 50 mM phosphate, 100 mM NaCl, pH 7.4 in 100% D2O. In separate NMR tubes, a ^1H CPMG NMR pulse was applied to a 1) mixture of ligands (individual ligands present at 100 µM for the screen and 50 µM for competition experiments) and 2) ligands + protein. […] For the competition experiments, τ was increased to 4.0 ms.

PfGCN5 bromodomain [3] = target: T1, PfGCN5 bromodomain; test: 1H-15N HSQC NMR titration with PfGCN5
Source text: To cross-validate our findings, ^1H-^15N HSQC NMR was used to further examine the binding mode of 9 to PfGCN5 in the presence and absence of known ligands. The ^1H-^15N HSQC spectrum of PfGCN5 is unassigned. For ease of spectral interpretation, all resonances that were distinctly visible were assigned as 1-64. Fragment 9, GSK4027, and the acetylated peptide H2A.Z II K7,13ac were titrated against PfGCN5. At the highest ligand concentration, resonances with Δδ > x^− + 0.60*s, where x^− is the mean and s is the standard deviation at the highest concentration, were defined as significant. The correction factor of 0.60 is to compensate for only 60% of the resonances being usable for analysis. Titration of 9 with PfGCN5 gave linear and non-linear dose-dependent chemical shift perturbations. Of the five resonances with non-linear movement, only one (10) was considered to have significant movement. […] This affinity with the non-fluorine-labeled protein is similar but higher than the affinity determined by PrOF NMR. […]
^1H-^15N SOFAST HSQC.^1H-^15N SOFAST HSQC spectra were obtained on a Bruker 600 MHz Avance NEO with a CryoProbe 5 mm TCI (^1H, ^13C, ^15N, ^2H) w/ Z-gradient using Bruker’s IBS_SOFAST.x method with 32 scans, 0.05 s acquisition time, and 0.2 s delay. […] Data were processed with nmrDraw, nmrPipe, and NFRAM Sparky. Δδ^1H-^15N was calculated using Equation (3). […]

BPTF bromodomain = BPTF bromodomain (Homo sapiens, UniProt Q12830); test: PrOF NMR (dual-protein screen of mixtures, titrations) with 5FW-BPTF; parameters: against the bromodomains of BPTF and Plasmodium falciparum GCN5 (PfGCN5); his6; made in house; conditions: hit mixture containing the fragment, 400 µM each fragment
Protocol: as §1, §2, §3

T1 sequence (Q8IB67 entry or part of it): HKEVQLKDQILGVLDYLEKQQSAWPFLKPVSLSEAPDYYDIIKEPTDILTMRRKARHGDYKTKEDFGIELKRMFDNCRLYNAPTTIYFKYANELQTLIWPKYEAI

With `Nc1ccc2c(c1)N(C(=O)C1CC1)CCC2` [Fragment 9] the “ligand efficiency (LE)” value (PfGCN5 bromodomain [1]; PfGCN5, from Kd = 16 µM) was 0.43, the Kd (PfGCN5 bromodomain [1]; PfGCN5 Kd, PrOF NMR titration, for 9 average of W1454 and W1379, NS = non-saturating) was 17 µM and 16 µM and the “Initial Mixture PfGCN5 PrOF NMR Δδ” value (PfGCN5 bromodomain [1]; hit mixture containing the fragment, 400 µM each fragment) was “++++ (++++ = Δδ > 0.2)”. The “selectivity, binds PfGCN5 over BPTF” value (PfGCN5 bromodomain [1]; ratio of Kd values) was 9 fold, the “PfGCN5 CPMG % decrease” value (PfGCN5 bromodomain [2]) was 100% and the “1H CPMG NMR % Drop in Resonance Intensity PfGCN5” value (PfGCN5 bromodomain [2]; for 9 from competition experiments (footnote a)) was “++++ ^a (++++ = 80–99.9%)”. For the same compound, the Kd (PfGCN5 bromodomain [3]) was 7.5 µM and the “Initial Mixture BPTF PrOF NMR Δδ” value (BPTF bromodomain) was “++++ (++++ = Δδ > 0.2)”.
